In patent US20230279025A1, “KRAS G12D INHIBITORS” (Mirati Therapeutics, Inc., priority 2020, published 2023):

Legend:
KRas G12D [1] = target: T1, KRas G12D (Homo sapiens (Human), UniProt P01116, G12D); assay: KRas G12D Surface Plasmon Resonance (SPR) Binding Assay; details: Biacore T200, immobilized biotinylated KRAS protein, 1:1 binding model
Target sequence in this assay (P01116-2 other isoform, or with tags, fused parts or gaps G12D): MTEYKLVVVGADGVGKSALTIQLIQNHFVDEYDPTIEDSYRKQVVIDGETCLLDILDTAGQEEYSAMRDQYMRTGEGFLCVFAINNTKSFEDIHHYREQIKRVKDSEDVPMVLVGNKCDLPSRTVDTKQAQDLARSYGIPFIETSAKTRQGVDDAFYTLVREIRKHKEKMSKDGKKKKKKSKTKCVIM

KRas G12D [2] = target: T1, KRas G12D; assay: KRas G12D Binding Assay (TR-FRET displacement of Cy5 labelled tracer); details: GDP-loaded KRAS G12D (amino acids 1:169), 60 minute incubation at 22° C.
Description: After a 60 minute incubation at 22° C., the reaction was measured using a PerkinElmer EnVision multimode plate reader via TR-FRET dual wavelength detection, and the percent of control (POC) calculated using a ratiometric emission factor. […] The POC values were fit to a 4-parameter logistic curve and the IC50 value was determined as the concentration where the curve crosses 50 POC.
ND stands for “not determined.”
Target sequence in this assay (P01116 other isoform, or with tags, fused parts or gaps G12D): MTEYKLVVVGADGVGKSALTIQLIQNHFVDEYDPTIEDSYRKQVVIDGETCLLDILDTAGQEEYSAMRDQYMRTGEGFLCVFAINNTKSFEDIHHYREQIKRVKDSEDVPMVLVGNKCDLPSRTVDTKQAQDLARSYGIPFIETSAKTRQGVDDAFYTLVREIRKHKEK

SMILES | Kd (KRas G12D [1]) | IC50 (KRas G12D [2])
Cc1cccc2cccc(-c3cc4nc(OC[C@@H]5CCCN5C)nc(N5C[C@H]6CC[C@@H](C5)N6)c4cn3)c12 [Example 116, 4-((1R,5S)-3,8-diazabicyclo[3.2.1]octan-3-yl)-7-(8-methylnaphthalen-1-yl)-2-(((S)-1-methylpyrrolidin-2-yl)methoxy)pyrido[4,3-d]pyrimidine] | 3630 nM | 1440 nM
CC1CCCc2cccc(-c3ncc4c(N5CC6CCC(C5)N6)nc(OC[C@@H]5CCCN5C)nc4c3F)c21 (stereo partly drawn) [Example 133, 4-((I R,5S)-3,8-diazabicyclo[3.2.1]octan-3-yl)-8-fluoro-7-(8-methyl-5,6,7,8-tetrahydronaphthalen-1-yl)-2-(((S)-1-methylpyrrolidin-2-yl)methoxy)pyrido[4,3-d]pyrimidine] | 113 nM | 48.8 nM
[O-][S+]1CCC(Oc2nc(N3C[C@H]4CC[C@@H](C3)N4)c3cnc(-c4cc(O)cc5ccccc45)c(F)c3n2)CC1 (stereo partly drawn) [Example 82, 4-((4-((1R,5S)-3,8-diazabicyclo[3.2.1]octan-3-yl)-8-fluoro-7-(3-hydroxynaphthalen-1-yl)pyrido[4,3-d]pyrimidin-2-yl)oxy)tetrahydro-2H-thiopyran 1-oxide] | 215 nM | 227 nM
O=S1(=O)CCC(Oc2nc(N3C[C@H]4CC[C@@H](C3)N4)c3cnc(-c4cc(O)cc5ccccc45)c(F)c3n2)CC1 [Example 71, 4-((4-((1R,5S)-3,8-diazabicyclo[3.2.1]octan-3-yl)-8-fluoro-7-(3-hydroxynaphthalen-1-yl)pyrido[4,3-d]pyrimidin-2-yl)oxy)tetrahydro-2H-thiopyran 1,1-dioxide] | 138 nM | 126 nM
COCCOc1nc(N2C[C@H]3CC[C@@H](C2)N3)c2cnc(-c3cc(O)cc4ccccc34)c(F)c2n1 [Example 70, 4-(4-((1R,5S)-3,8-diazabicyclo[3.2.1]octan-3-yl)-8-fluoro-2-(2-methoxyethoxy)pyrido[4,3-d]pyrimidin-7-yl)naphthalen-2-ol] | 417 nM | 356 nM
Oc1cc(-c2ncc3c(N4C[C@H]5CC[C@@H](C4)N5)nc(N4CC5(CCOC5)C4)nc3c2F)c2ccccc2c1 [Example 76, 4-(4-((1R,5S)-3,8-diazabicyclo[3.2.1]octan-3-yl)-8-fluoro-2-(6-oxa-2-azaspiro[3.4]octan-2-yl)pyrido[4,3-d]pyrimidin-7-yl)naphthalen-2-ol] | 197 nM | 131 nM
Cn1ccnc1CCOc1nc(N2C[C@H]3CC[C@@H](C2)N3)c2cnc(-c3cccc4cccc(Cl)c34)c(F)c2n1 [Example 114, 4-((I R,5S)-3,8-diazabicyclo[3.2.1]octan-3-yl)-7-(8-chloronaphthalen-1-yl)-8-fluoro-2-(2-(1-methyl-1H-imidazol-2-yl)ethoxy)pyrido[4,3-d]pyrimidine] | 384 nM | 482 nM
CN1CCC[C@H]1COc1nc(N2C[C@H]3CC[C@@H](C2)N3)c2cnc(-c3cccc4cccc(Cl)c34)cc2n1 [Example 123, 4-((1R,5S)-3,8-diazabicyclo[3.2.1]octan-3-yl)-7-(8-chloronaphthalen-1-yl)-2-(((S)-1-methylpyrrolidin-2-yl)methoxy)pyrido[4,3-d]pyrimidine] | 786 nM | 754 nM
OC[C@@H]1CCCN1c1nc(N2C[C@H]3CC[C@@H](C2)N3)c2cnc(-c3cc(O)cc4ccccc34)c(F)c2n1 [Example 77, 4-(4-((1R,5S)-3,8-diazabicyclo[3.2.1]octan-3-yl)-8-fluoro-2-((S)-2-(hydroxymethyl)pyrrolidin-1-yl)pyrido[4,3-d]pyrimidin-7-yl)naphthalen-2-ol] | 3070 nM | 3140 nM
OCC[C@@H](CO)Oc1nc(N2C[C@H]3CC[C@@H](C2)N3)c2cnc(-c3cccc4cccc(Cl)c34)c(F)c2n1 [Example 58, (S)-2-((4-((1R,5S)-3,8-diazabicyclo[3.2.1]octan-3-yl)-7-(8-chloronaphthalen-1-yl)-8-fluoropyrido[4,3-d]pyrimidin-2-yl)oxy)butane-1,4-diol] | 4730 nM | 2330 nM
CN1CCC[C@H]1COc1nc(N2C[C@H]3CC[C@@H](C2)N3)c2cnc(-c3cccc4c3C3(CC4)CC3)c(F)c2n1 [Example 162, 4-((1R,5S)-3,8-diazabicyclo[3.2.1]octan-3-yl)-7-(2′,3′-dihydrospiro[cyclopropane-1,1′-inden]-7′-yl)-8-fluoro-2-(((S)-1-methylpyrrolidin-2-yl)methoxy)pyrido[4,3-d]pyrimidine bis(2,2,2-trifluoroacetate)] | 555 nM | 677 nM
Oc1cc(-c2ncc3c(N4C[C@H]5CC[C@@H](C4)N5)nc(N4CCC4)nc3c2F)c2ccccc2c1 [Example 119, 4-(2-(azetidin-1-yl)-4-((1R,5S)-3,8-diazabicyclo[3.2.1]octan-3-yl)-8-fluoropyrido[4,3-d]pyrimidin-7-yl)naphthalen-2-ol 2,2,2-trifluoroacetate] | 511 nM | 684 nM
CN1CCC[C@H]1COc1nc(N2CC3CCC(CCC#N)(C2)N3)c2cnc(-c3cc(O)cc4ccccc34)c(F)c2n1 (stereo partly drawn) [Example 157, 3-(3-(8-fluoro-7-(3-hydroxynaphthalen-1-yl)-2-(((S)-1-methylpyrrolidin-2-yl)methoxy)pyrido[4,3-d]pyrimidin-4-yl)-3,8-diazabicyclo[3.2.1]octan-1-yl)propanenitrile bis(2,2,2-trifluoroacetate)] | 22.9 nM | 26.6 nM
CN1CCC[C@H]1COc1nc(N2C[C@H]3CC[C@@H](C2)N3)c2cnc(-c3cccc4ccc(F)c(Cl)c34)c(F)c2n1 [Example 44, 4-((1R,5S)-3,8-diazabicyclo[3.2.1]octan-3-yl)-7-(8-chloro-7-fluoronaphthalen-1-yl)-8-fluoro-2-(((S)-1-methylpyrrolidin-2-yl)methoxy)pyrido[4,3-d]pyrimidine] | 31.7 nM | 33.7 nM
Cn1ccnc1CCNc1nc(N2C[C@H]3CC[C@@H](C2)N3)c2cnc(-c3cc(O)cc4ccccc34)c(F)c2n1 [Example 111, 4-(4-((1R,5S)-3,8-diazabicyclo[3.2.1]octan-3-yl)-8-fluoro-2-((2-(1-methyl-1H-imidazol-2-yl)ethyl)amino)pyrido[4,3-d]pyrimidin-7-yl)naphthalen-2-ol] | 276 nM | 281 nM
Fc1c(-c2cccc3cccc(Cl)c23)ncc2c(N3C[C@H]4CC[C@@H](C3)N4)nc(OCC34CCCCN3CCC4)nc12 (stereo partly drawn) [Example 54, 4-((1R,5S)-3,8-diazabicyclo[3.2.1]octan-3-yl)-7-(8-chloronaphthalen-1-yl)-8-fluoro-2-((hexahydroindolizin-8a(1H)-yl)methoxy)pyrido[4,3-d]pyrimidine] | 118 nM | 68.7 nM
CN(C)CCOc1nc(N2C[C@H]3CC[C@@H](C2)N3)c2cnc(-c3cc(O)cc4ccccc34)c(F)c2n1 [Example 18, 4-(4-((1R,5S)-3,8-diazabicyclo[3.2.1]octan-3-yl)-2-(2-(dimethylamino)ethoxy)-8-fluoropyrido[4,3-d]pyrimidin-7-yl)naphthalen-2-ol] | 3.1 nM | 76.8 nM
Oc1cc(-c2ncc3c(N4C[C@H]5CC[C@@H](C4)N5)nc(OCCc4ccccc4)nc3c2F)c2ccccc2c1 [Example 96, 4-(4-((1R,5S)-3,8-diazabicyclo[3.2.1]octan-3-yl)-8-fluoro-2-phenethoxypyrido[4,3-d]pyrimidin-7-yl)naphthalen-2-ol] | 710 nM | 2220 nM
